Data published in patent US7208515B2, “Diphenylmethyl compounds useful as muscarinic receptor antagonists” (Theravance, Inc., priority 2004, dated 2007).
pKi: −log10 of the molar value.

Tests used:
[1] = molecular target: T1, hM2 receptor (CHO-K1 cells) (Homo sapiens, UniProt P08172); test: Blockade of agonist-mediated [35S]GTPγS binding; assay type: biochemical; conditions: CHO-K1 cells expressing the hM2 receptor; read-out: Ki value for blockade of oxotremorine-stimulated [35S]GTPγS binding
T1 construct: expressed in transfected cells; host or cells: CHO-K1 cells
T1 sequence (P08172 1-466): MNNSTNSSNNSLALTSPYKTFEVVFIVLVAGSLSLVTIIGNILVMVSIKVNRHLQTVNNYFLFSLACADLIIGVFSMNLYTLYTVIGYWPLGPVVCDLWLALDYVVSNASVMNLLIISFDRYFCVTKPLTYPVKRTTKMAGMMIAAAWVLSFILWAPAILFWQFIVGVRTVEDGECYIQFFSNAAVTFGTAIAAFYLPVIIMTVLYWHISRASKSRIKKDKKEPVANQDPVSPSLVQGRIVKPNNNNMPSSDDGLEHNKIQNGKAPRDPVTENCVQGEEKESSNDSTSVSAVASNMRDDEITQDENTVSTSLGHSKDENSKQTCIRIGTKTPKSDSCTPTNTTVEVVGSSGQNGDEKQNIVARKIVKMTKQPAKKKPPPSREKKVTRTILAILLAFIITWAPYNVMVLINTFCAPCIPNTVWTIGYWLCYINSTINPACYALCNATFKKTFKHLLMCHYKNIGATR
Procedure: B. Blockade of Agonist-Mediated [^35S]GTPγS Binding
In a second functional assay, the functional potency of test compounds can be determined by measuring the ability of the compounds to block oxotremorine-stimulated [^35S]GTPγS binding in CHO-K1 cells expressing the hM2 receptor.
At the time of use, frozen membranes were thawed and then diluted in assay buffer with a final target tissue concentration of 5–10 μg protein per well. The membranes were briefly homogenized using a Polytron PT-2100 tissue disrupter and then added to the assay plates.
The EC90 value (effective concentration for 90% maximal response) for stimulation of [^35S]GTPγS binding by the agonist oxotremorine was determined in each experiment.
To determine the ability of a test compound to inhibit oxotremorine-stimulated [^35S]GTPγS binding, the following was added to each well of 96 well plates: 25 μL of assay buffer with [^35S]GTPγS (0.4 nM), 25 μL of oxotremorine(EC90) and GDP (3 μM), 25 μL of diluted test compound and 25 μL CHO cell membranes expressing the hM2 receptor. […] Microscint-20 scintillation liquid (50 μL) was added to each well, and each plate was sealed and radioactivity counted on a topcounter (PerkinElmer). Data were analyzed by nonlinear regression analysis with the GraphPad Prism Software package (GraphPad Software, Inc., San Diego, Calif.) using the non-linear regression, one-site competition equation. […]

[2] = tested on: ACh-induced bronchoconstriction; test: Duration of bronchoprotection in guinea pig model of acetylcholine-induced bronchoconstriction; assay type: in vivo; conditions: inhalation, 1.5 hours post-dose
Procedure: Determination of Duration of Bronchoprotection in Guinea Pig Model of Acetylcholine-Induced Bronchoconstriction
Groups of six male guinea pigs (Duncan-Hartley (HsdPoc:DH) Harlan, Madison, Wis.) weighing between 250 and 350 g were individually identified by cage cards. Throughout the study animals were allowed access to food and water ad libitum.
Test compounds were administered via inhalation over 10 minutes in a whole-body exposure dosing chamber (R&S Molds, San Carlos, Calif.). The dosing chambers were arranged so that an aerosol was simultaneously delivered to 6 individual chambers from a central manifold. Guinea pigs were exposed to an aerosol of a test compound or vehicle (WFI). […] This was measured gravimetrically by comparing pre-and post-nebulization weights of the filled nebulizer.
The bronchoprotective effects of test compounds administered via inhalation were evaluated using whole body plethysmography at 1.5, 24, 48 and 72 hours post-dose.
Forty-five minutes prior to the start of the pulmonary evaluation, each guinea pig was anesthetized with an intramuscular injection of ketamine (43.75 mg/kg), xylazine (3.50 mg/kg) and acepromazine (1.05 mg/kg). […] The depth of anesthesia was monitored and adjusted if the animal responded to pinching of its paw or if the respiration rate was greater than 100 breaths/minute. […]

**Q.** How did the pKi [1] turn out when `CNCC(=O)NCCCCCN1CC[C@@H](C(C(N)=O)(c2ccccc2)c2ccccc2)C1` [Example 1] was run?
**A.** > 7.00

**Q.** What about the “PD2(50) for ACh-induced bronchoconstriction” value [2] of the same molecule?
**A.** less than 200 μg/mL
